Data set [1] addresses SARS-CoV-2 RBD binding to immobilized ACE2 (Severe acute respiratory syndrome coronavirus 2, UniProt P0DTC2). The data set is described as follows: biochemical.
Data set [2] deals with SARS-CoV-2 RBD (Severe acute respiratory syndrome coronavirus 2, UniProt P0DTC2). The data set is described as follows: biochemical. The class given is binding. The settings on record: for Kd: KD (direct binding to RBD); for kon: read-out: ka.
Data set [3] in a line: Solubility measurement (peptide concentration in saturated solution). The settings on record: sodium-phosphate buffer, pH 7.4, aqueous buffer, thermodynamic from solid.
Experimental: Approximately 2 mg of each peptide was added to 500 µl of buffer in 1.5-ml Eppendorf tubes. The tubes were shaken at 25 °C for 2 h on a 900 r.p.m. vortex shaker. The samples were centrifuged at 12,000 r.p.m. for 15 min to remove the precipitate and the supernatant was analyzed by ultraviolet–visible light (UV–vis) spectrometry.

This is an account of results in publication PMC9512702 (Nature Chemical Biology, 2022).

Values after ≈ are worked out from the molar mass of the structure shown. Where a SMILES comes first, the peptide text is derived from it. [ ]: non-standard residue; d: D form. Phe(3,4-F2) = N[C@@H](Cc1ccc(F)c(F)c1)C(=O)O; Cha = N[C@@H](CC1CCCCC1)C(=O)O; Aib = CC(C)(N)C(=O)O

As for `CC[C@H](C)[C@H](NC(=O)[C@H](CCC(=O)O)NC(=O)[C@H](CC(=O)O)NC(=O)[C@H](CO)NC(=O)[C@@H](NC(=O)[C@H](CCCNC(=N)N)NC(=O)[C@H](CCSC)NC(=O)[C@H](CO)NC(=O)[C@H](C)NC(=O)[C@H](CCC(=O)O)NC(=O)C(C)(C)NC(=O)[C@H](CC(=O)O)NC(=O)[C@@H](C)NC(=O)[C@H](CC(C)C)NC(=O)[C@H](CCC(=O)O)NC(=O)[C@H](CC(=O)O)NC(=O)[C@H](CC(C)C)NC(=O)[C@H](CC(C)C)NC(=O)[C@H](CCCNC(=N)N)NC(=O)[C@H](CCSC)NC(=O)[C@H](CCC(=O)O)NC(=O)[C@H](CCC(=O)O)NC(=O)[C@H](Cc1ccc(O)cc1)NC(=O)[C@@H](NC(=O)[C@H](CCCCN)NC(=O)[C@H](CCC(N)=O)NC(=O)[C@H](CC(C)C)NC(=O)[C@@H](NC(=O)[C@H](Cc1c[nH]c2ccccc12)NC(=O)[C@H](CCC(=O)O)NC(=O)[C@H](CCCCN)NC(=O)[C@@H](N)CC(=O)O)[C@@H](C)CC)[C@@H](C)CC)C(C)C)C(=O)N[C@@H](Cc1ccc(O)cc1)C(=O)N[C@@H](CCC(=O)O)C(=O)N[C@@H](Cc1ccccc1)C(=O)N[C@@H](CCSC)C(=O)N[C@@H](CCCCN)C(=O)N[C@@H](CCCCN)C(N)=O` [SIH-15] (H-DKEWILQKIYEEMRLLDEL[dA]D[Aib]EASMRVSDEIYEFMKK-NH2), the IC50 (usually the concentration that inhibits the measured activity by half) in data set [1] is 250 to 500 nM. Also, in data set [2], binding was put at a Kd of 1.7 nM and the kon was found to be 150000 M⁻¹ s⁻¹.
In the case of `CC[C@H](C)[C@H](NC(=O)[C@H](CC(C)C)NC(=O)[C@H](CC(=O)O)NC(=O)[C@H](CO)NC(=O)[C@@H](NC(=O)[C@H](CCCNC(=N)N)NC(=O)[C@H](CCSC)NC(=O)[C@H](CO)NC(=O)[C@H](C)NC(=O)[C@H](CCC(=O)O)NC(=O)C(C)(C)NC(=O)[C@H](CC(N)=O)NC(=O)[C@@H](C)NC(=O)[C@H](CC(C)C)NC(=O)[C@H](CCC(=O)O)NC(=O)[C@H](CC(=O)O)NC(=O)[C@H](CC(C)C)NC(=O)[C@H](CC(C)C)NC(=O)[C@H](CCCNC(=N)N)NC(=O)[C@H](CCSC)NC(=O)[C@@H](NC(=O)[C@H](CCC(=O)O)NC(=O)[C@H](Cc1ccc(O)cc1)NC(=O)[C@@H](NC(=O)[C@H](CCCCN)NC(=O)[C@H](CCC(N)=O)NC(=O)[C@H](CC(C)C)NC(=O)[C@@H](NC(=O)[C@H](Cc1c[nH]c2ccccc12)NC(=O)[C@H](CCC(=O)O)NC(=O)[C@H](CCCCN)NC(=O)[C@@H](N)CC(=O)O)[C@@H](C)CC)[C@@H](C)CC)[C@@H](C)CC)C(C)C)C(=O)N[C@@H](Cc1ccc(O)cc1)C(=O)N[C@@H](CCC(=O)O)C(=O)N[C@@H](Cc1ccccc1)C(=O)N[C@@H](CCSC)C(=O)N[C@@H](CCCCN)C(=O)N[C@@H](CCCCN)C(N)=O` [SIH-4] (H-DKEWILQKIYEIMRLLDEL[dA]N[Aib]EASMRVSDLIYEFMKK-NH2), the 50% inhibitory concentration (IC50) in data set [1] was in the range of 250 to 500 nM. For the same compound, in data set [3], the thermodynamic solubility (usually the concentration in solution at equilibrium with solid) at 2 h was 220 µM (≈ 1020 µg/mL).
On to `CC[C@H](C)[C@H](NC(=O)[C@H](CC(C)C)NC(=O)[C@H](CC(=O)O)NC(=O)[C@H](CO)NC(=O)[C@@H](NC(=O)[C@H](CCCNC(=N)N)NC(=O)[C@H](CCSC)NC(=O)[C@H](CO)NC(=O)[C@H](C)NC(=O)[C@H](CCC(=O)O)NC(=O)C(C)(C)NC(=O)[C@H](Cc1c[nH]cn1)NC(=O)[C@@H](C)NC(=O)[C@H](CC(C)C)NC(=O)[C@H](CCC(=O)O)NC(=O)[C@H](CC(=O)O)NC(=O)[C@H](CC(C)C)NC(=O)[C@H](CC(C)C)NC(=O)[C@H](CCCNC(=N)N)NC(=O)[C@H](CCSC)NC(=O)[C@@H](NC(=O)[C@H](CCC(=O)O)NC(=O)[C@H](Cc1ccc(O)cc1)NC(=O)[C@@H](NC(=O)[C@H](CCCCN)NC(=O)[C@H](CCC(N)=O)NC(=O)[C@H](CC(C)C)NC(=O)[C@@H](NC(=O)[C@H](Cc1c[nH]c2ccccc12)NC(=O)[C@H](CCC(=O)O)NC(=O)[C@H](CCCCN)NC(=O)[C@@H](N)CC(=O)O)[C@@H](C)CC)[C@@H](C)CC)[C@@H](C)CC)C(C)C)C(=O)N[C@@H](Cc1ccc(O)cc1)C(=O)N[C@@H](CCC(=O)O)C(=O)N[C@@H](Cc1ccccc1)C(=O)N[C@@H](CCSC)C(=O)N[C@@H](CCCCN)C(=O)N[C@@H](CCCCN)C(N)=O` [SIH-3] (H-DKEWILQKIYEIMRLLDEL[dA]H[Aib]EASMRVSDLIYEFMKK-NH2), for which the IC50 in data set [1] lay in the range of 125 to 250 nM. Besides, the thermodynamic solubility at 2 h in data set [3] is 95 µM (≈ 444 µg/mL).
The like results for `CC[C@H](C)[C@H](NC(=O)[C@H](CC(C)C)NC(=O)[C@H](CC(=O)O)NC(=O)[C@H](CO)NC(=O)[C@@H](NC(=O)[C@H](CCCNC(=N)N)NC(=O)[C@H](CCSC)NC(=O)[C@H](CO)NC(=O)[C@H](C)NC(=O)[C@H](CCC(=O)O)NC(=O)[C@H](C)NC(=O)[C@H](Cc1c[nH]cn1)NC(=O)CNC(=O)[C@H](CC(C)C)NC(=O)[C@H](CCC(=O)O)NC(=O)[C@H](CC(=O)O)NC(=O)[C@H](CC(C)C)NC(=O)[C@H](CC(C)C)NC(=O)[C@H](CCCNC(=N)N)NC(=O)[C@H](CCSC)NC(=O)[C@@H](NC(=O)[C@H](CCC(=O)O)NC(=O)[C@H](Cc1ccc(O)cc1)NC(=O)[C@@H](NC(=O)[C@H](CCCCN)NC(=O)[C@H](CCC(N)=O)NC(=O)[C@H](CC(C)C)NC(=O)[C@@H](NC(=O)[C@H](Cc1c[nH]c2ccccc12)NC(=O)[C@H](CCC(=O)O)NC(=O)[C@H](CCCCN)NC(=O)[C@@H](N)CC(=O)O)[C@@H](C)CC)[C@@H](C)CC)[C@@H](C)CC)C(C)C)C(=O)N[C@@H](Cc1ccc(O)cc1)C(=O)N[C@@H](CCC(=O)O)C(=O)N[C@@H](Cc1ccccc1)C(=O)N[C@@H](CCSC)C(=O)N[C@@H](CCCCN)C(=O)N[C@@H](CCCCN)C(N)=O` [SIH-1] were, in that order, 2500 to 5000 nM and 17 µM (≈ 78.9 µg/mL).
As to `CC[C@H](C)[C@H](NC(=O)[C@H](CC(C)C)NC(=O)[C@H](CC(=O)O)NC(=O)[C@H](CO)NC(=O)[C@@H](NC(=O)[C@H](CCCNC(=N)N)NC(=O)[C@H](CCSC)NC(=O)[C@H](CO)NC(=O)[C@H](C)NC(=O)[C@H](CCC(=O)O)NC(=O)C(C)(C)NC(=O)[C@H](CC(=O)O)NC(=O)[C@@H](C)NC(=O)[C@H](CC(C)C)NC(=O)[C@H](CCC(=O)O)NC(=O)[C@H](CC(=O)O)NC(=O)[C@H](CC(C)C)NC(=O)[C@H](CC(C)C)NC(=O)[C@H](CCCNC(=N)N)NC(=O)[C@H](CCSC)NC(=O)[C@@H](NC(=O)[C@H](CCC(=O)O)NC(=O)[C@H](Cc1ccc(F)c(F)c1)NC(=O)[C@@H](NC(=O)[C@H](CCCCN)NC(=O)[C@H](CCC(N)=O)NC(=O)[C@H](CC(C)C)NC(=O)[C@@H](NC(=O)[C@H](Cc1c[nH]c2ccccc12)NC(=O)[C@H](CCC(=O)O)NC(=O)[C@H](CCCCN)NC(=O)[C@@H](N)CC(=O)O)[C@@H](C)CC)[C@@H](C)CC)[C@@H](C)CC)C(C)C)C(=O)N[C@@H](Cc1ccc(O)cc1)C(=O)N[C@@H](CCC(=O)O)C(=O)N[C@@H](CC1CCCCC1)C(=O)N[C@@H](CCSC)C(=O)N[C@@H](CCCCN)C(=O)N[C@@H](CCCCN)C(N)=O` [SIH-13] (H-DKEWILQKI[Phe(3,4-F2)]EIMRLLDEL[dA]D[Aib]EASMRVSDLIYE[Cha]MKK-NH2), the half-maximal inhibitory concentration (IC50) in data set [1] was in the range of 125 to 250 nM. Binding in data set [2] was put at a Kd of 1.6 nM.
Regarding `CC[C@H](C)[C@H](NC(=O)[C@H](C)NC(=O)[C@H](CC(=O)O)NC(=O)[C@H](CO)NC(=O)[C@@H](NC(=O)[C@H](CCCNC(=N)N)NC(=O)[C@H](CCSC)NC(=O)[C@H](CO)NC(=O)[C@H](C)NC(=O)[C@H](CCC(=O)O)NC(=O)C(C)(C)NC(=O)[C@H](CC(=O)O)NC(=O)[C@@H](C)NC(=O)[C@H](CC(C)C)NC(=O)[C@H](CCC(=O)O)NC(=O)[C@H](CC(=O)O)NC(=O)[C@H](CC(C)C)NC(=O)[C@H](CC(C)C)NC(=O)[C@H](CCCNC(=N)N)NC(=O)[C@H](CCSC)NC(=O)[C@H](C)NC(=O)[C@H](CCC(=O)O)NC(=O)[C@H](Cc1ccc(O)cc1)NC(=O)[C@@H](NC(=O)[C@H](CCCCN)NC(=O)[C@H](CCC(N)=O)NC(=O)[C@H](CC(C)C)NC(=O)[C@@H](NC(=O)[C@H](Cc1c[nH]c2ccccc12)NC(=O)[C@H](CCC(=O)O)NC(=O)[C@H](CCCCN)NC(=O)[C@@H](N)CC(=O)O)[C@@H](C)CC)[C@@H](C)CC)C(C)C)C(=O)N[C@@H](Cc1ccc(O)cc1)C(=O)N[C@@H](CCC(=O)O)C(=O)N[C@@H](Cc1ccccc1)C(=O)N[C@@H](CCSC)C(=O)N[C@@H](CCCCN)C(=O)N[C@@H](CCCCN)C(N)=O` [SIH-14] (H-DKEWILQKIYEAMRLLDEL[dA]D[Aib]EASMRVSDAIYEFMKK-NH2), the IC50 in data set [1] lay in the range of 250 to 500 nM. In data set [2], the dissociation constant Kd (usually the constant that tells how readily two partners part at equilibrium) worked out at 3 nM and the kon was determined as 90000 M⁻¹ s⁻¹.
On to `CC[C@H](C)[C@H](NC(=O)[C@H](CC(C)C)NC(=O)[C@H](CC(=O)O)NC(=O)[C@H](CO)NC(=O)[C@@H](NC(=O)[C@H](CCCNC(=N)N)NC(=O)[C@H](CCSC)NC(=O)[C@H](CO)NC(=O)[C@H](C)NC(=O)[C@H](CCC(=O)O)NC(=O)C(C)(C)NC(=O)[C@H](CC(=O)O)NC(=O)[C@@H](C)NC(=O)[C@H](CC(C)C)NC(=O)[C@H](CCC(=O)O)NC(=O)[C@H](CC(=O)O)NC(=O)[C@H](CC(C)C)NC(=O)[C@H](CC(C)C)NC(=O)[C@H](CCCNC(=N)N)NC(=O)[C@H](CCSC)NC(=O)[C@@H](NC(=O)[C@H](CCC(=O)O)NC(=O)[C@H](Cc1ccc(F)c(F)c1)NC(=O)[C@@H](NC(=O)[C@H](CCCCN)NC(=O)[C@H](CCC(N)=O)NC(=O)[C@H](CC(C)C)NC(=O)[C@@H](NC(=O)[C@H](Cc1c[nH]c2ccccc12)NC(=O)[C@H](CCC(=O)O)NC(=O)[C@H](CCCCN)NC(=O)[C@@H](N)CC(=O)O)[C@@H](C)CC)[C@@H](C)CC)[C@@H](C)CC)C(C)C)C(=O)N[C@@H](Cc1ccc(O)cc1)C(=O)N[C@@H](CCC(=O)O)C(=O)N[C@@H](Cc1ccccc1)C(=O)N[C@@H](CCSC)C(=O)N[C@@H](CCCCN)C(=O)N[C@@H](CCCCN)C(N)=O` [SIH-7] (H-DKEWILQKI[Phe(3,4-F2)]EIMRLLDEL[dA]D[Aib]EASMRVSDLIYEFMKK-NH2), for which the IC50 in data set [1] fell in the range of 125 to 250 nM. The compound further returned a Kd in data set [2] of 2.9 nM.
